Data on 32 compounds can be found in ChEMBL document CHEMBL3745644, “The synthesis and BK channel-opening activity of N-acylaminoalkyloxime derivatives of dehydroabietic acid” (Bioorg Med Chem Lett, 2016).

For the test, the target named is Calcium-activated potassium channel subunit alpha-1 (Homo sapiens) (UniProt Q12791). Nature of the test: Induction of step pulse-induced human BKalpha channel opening activity expressed in CHO-K1 cells at 30 uM by population patch clamp method relative to control. It counts as cell-based. A general note: Patch clamp records ionic current or voltage across a cell membrane.

Each structure is given as a SMILES string.

Calcium-activated potassium channel subunit alpha-1 (Homo sapiens), sequence (Q12791 whole entry): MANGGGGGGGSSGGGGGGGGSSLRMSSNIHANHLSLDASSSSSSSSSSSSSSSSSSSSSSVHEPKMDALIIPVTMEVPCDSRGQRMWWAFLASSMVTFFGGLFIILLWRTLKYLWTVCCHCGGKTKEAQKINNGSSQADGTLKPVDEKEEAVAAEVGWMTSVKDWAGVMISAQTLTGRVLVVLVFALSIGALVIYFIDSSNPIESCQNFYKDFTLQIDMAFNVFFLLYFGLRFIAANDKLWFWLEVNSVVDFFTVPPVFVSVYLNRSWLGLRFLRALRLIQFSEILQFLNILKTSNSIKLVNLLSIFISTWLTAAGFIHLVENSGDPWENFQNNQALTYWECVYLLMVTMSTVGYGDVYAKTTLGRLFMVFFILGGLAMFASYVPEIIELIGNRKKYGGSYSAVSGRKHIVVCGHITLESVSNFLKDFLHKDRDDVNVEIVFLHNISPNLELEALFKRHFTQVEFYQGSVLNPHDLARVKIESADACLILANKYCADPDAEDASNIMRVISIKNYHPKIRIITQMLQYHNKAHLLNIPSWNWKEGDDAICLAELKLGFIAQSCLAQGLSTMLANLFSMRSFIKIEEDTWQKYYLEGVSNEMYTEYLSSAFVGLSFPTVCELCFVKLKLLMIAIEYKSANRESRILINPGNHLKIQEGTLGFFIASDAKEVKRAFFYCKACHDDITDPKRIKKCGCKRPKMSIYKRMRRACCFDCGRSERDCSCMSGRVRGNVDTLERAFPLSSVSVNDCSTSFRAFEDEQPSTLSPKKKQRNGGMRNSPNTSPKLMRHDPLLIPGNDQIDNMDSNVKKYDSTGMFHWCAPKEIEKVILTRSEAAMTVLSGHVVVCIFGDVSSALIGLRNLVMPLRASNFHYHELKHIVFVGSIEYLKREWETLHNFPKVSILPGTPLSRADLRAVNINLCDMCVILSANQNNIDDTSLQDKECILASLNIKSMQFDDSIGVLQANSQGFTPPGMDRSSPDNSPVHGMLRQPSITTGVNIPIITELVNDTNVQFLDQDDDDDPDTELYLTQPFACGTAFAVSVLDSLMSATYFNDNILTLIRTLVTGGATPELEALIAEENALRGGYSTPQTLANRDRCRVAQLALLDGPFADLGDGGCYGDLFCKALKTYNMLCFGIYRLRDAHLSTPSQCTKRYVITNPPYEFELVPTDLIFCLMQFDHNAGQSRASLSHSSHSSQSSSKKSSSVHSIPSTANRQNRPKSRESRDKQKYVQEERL

Turning to `CC(C)c1cc2c(cc1Br)[C@@]1(C)CCC[C@@](C)(C(=O)O)[C@@H]1C/C2=N\OCCNC(=O)c1ccc(Cl)s1`, the Activity was 103%.
On to `CC(C)c1cc2c(cc1Br)[C@@]1(C)CCC[C@@](C)(C(=O)O)[C@@H]1C/C2=N\OCCNC(=O)c1ccsc1`, for which the Activity is 128%.
Next, `Cc1ccc(C(=O)NCCO/N=C2\C[C@H]3[C@](C)(C(=O)O)CCC[C@]3(C)c3cc(Br)c(C(C)C)cc32)s1`: 101%.
Next, `COc1ccc(C(=O)NCCO/N=C2\C[C@H]3[C@](C)(C(=O)O)CCC[C@]3(C)c3cc(Br)c(C(C)C)cc32)cc1`: 102%; `CC(C)c1cc2c(cc1Br)[C@@]1(C)CCC[C@@](C)(C(=O)O)[C@@H]1C/C2=N\OCCCCCCNC(=O)c1cccs1`: 97.2%.
The value for `COc1ccccc1C(=O)NCCO/N=C1\C[C@H]2[C@](C)(C(=O)O)CCC[C@]2(C)c2cc(Br)c(C(C)C)cc21` was 101%; that for `CC(=O)NCCO/N=C1\C[C@H]2[C@](C)(C(=O)O)CCC[C@]2(C)c2cc(Br)c(C(C)C)cc21` was 140%; that for `CC(C)c1cc2c(cc1Br)[C@@]1(C)CCC[C@@](C)(C(=O)O)[C@@H]1C/C2=N\OCCNC(=O)c1ccccc1F` was 118%.
On to `CC(C)c1cc2c(cc1Br)[C@@]1(C)CCC[C@@](C)(C(=O)O)[C@@H]1C/C2=N\OCCNC(=O)c1cc2ccccc2[nH]1`, for which the Activity worked out at 89%.
The value for `CC(C)c1cc2c(cc1Br)[C@@]1(C)CCC[C@@](C)(C(=O)O)[C@@H]1C/C2=N\OCCNC(=O)c1ccccn1` was 108%; that for `CC(C)c1cc2c(cc1Br)[C@@]1(C)CCC[C@@](C)(C(=O)O)[C@@H]1C/C2=N\OCCNC(=O)c1cccc(C(F)(F)F)c1` was 113%; that for `CC(C)c1cc2c(cc1Br)[C@@]1(C)CCC[C@@](C)(C(=O)O)[C@@H]1C/C2=N\OCCNC(=O)c1nccs1` was 204%.
Next, `CC(C)c1cc2c(cc1Br)[C@@]1(C)CCC[C@@](C)(C(=O)O)[C@@H]1C/C2=N\OCCNC(=O)C1CC1`: 149%; `CC(C)c1cc2c(cc1Br)[C@@]1(C)CCC[C@@](C)(C(=O)O)[C@@H]1C/C2=N\OCCNC(=O)c1ccc(C(F)(F)F)cc1`: 107%.
Next, `CCc1ccc(C(=O)NCCO/N=C2\C[C@H]3[C@](C)(C(=O)O)CCC[C@]3(C)c3cc(Br)c(C(C)C)cc32)cc1`: 68%; `CC(C)c1cc2c(cc1Br)[C@@]1(C)CCC[C@@](C)(C(=O)O)[C@@H]1C/C2=N\OCCNC(=O)c1cc2ccccc2s1`: 85.7%; `CC(C)C(=O)NCCO/N=C1\C[C@H]2[C@](C)(C(=O)O)CCC[C@]2(C)c2cc(Br)c(C(C)C)cc21`: 142%.
Turning to `CC(C)c1cc2c(cc1Br)[C@@]1(C)CCC[C@@](C)(C(=O)O)[C@@H]1C/C2=N\OCCNC(=O)c1c(F)c(F)c(F)c(F)c1F`, the Activity was 136%.
The value for `CC(C)c1cc2c(cc1Br)[C@@]1(C)CCC[C@@](C)(C(=O)O)[C@@H]1C/C2=N\OCCN` was 98.6%; that for `CC(C)c1cc2c(cc1Br)[C@@]1(C)CCC[C@@](C)(C(=O)O)[C@@H]1C/C2=N\OCCNC(=O)c1ccccc1` was 121%; that for `CC(C)c1cc2c(cc1Br)[C@@]1(C)CCC[C@@](C)(C(=O)O)[C@@H]1C/C2=N\OCCCNC(=O)c1cccs1` was 136%.
On to `CC(C)c1ccc2c(c1)/C(=N/OCCNC(=O)c1cccs1)C[C@H]1[C@](C)(C(=O)O)CCC[C@]21C`, for which the Activity was 106%.
As for `CC(C)c1cc2c(cc1Br)[C@@]1(C)CCC[C@@](C)(C(=O)O)[C@@H]1C/C2=N\OCCNC(=O)c1ccc[nH]1`, the Activity was 124%.
With `O=c1[nH]c2cc(C(F)(F)F)ccc2n1-c1cc(C(F)(F)F)ccc1O`, the Activity is 268%.
The value for `CC(C)c1cc2c(cc1Br)[C@@]1(C)CCC[C@@](C)(C(=O)O)[C@@H]1C/C2=N\OCCNC(=O)c1cccs1` was 267%; that for `CC(C)c1cc2c(cc1Br)[C@@]1(C)CCC[C@@](C)(C(=O)O)[C@@H]1C/C2=N\OCCNC(=O)c1ccc(Br)s1` was 107%; that for `COc1cccc(C(=O)NCCO/N=C2\C[C@H]3[C@](C)(C(=O)O)CCC[C@]3(C)c3cc(Br)c(C(C)C)cc32)c1` was 90.4%.
Next, `CC(C)c1cc2c(cc1Br)[C@@]1(C)CCC[C@@](C)(C(=O)O)[C@@H]1C/C2=N\OCCNC(=O)c1ccco1`: 151%; `CC(C)c1cc2c(cc1Br)[C@@]1(C)CCC[C@@](C)(C(=O)O)[C@@H]1C/C2=N\OCCNC(=O)c1ccccc1C(F)(F)F`: 123%.
Next, `CC(C)c1cc2c(cc1Br)[C@@]1(C)CCC[C@@](C)(C(=O)O)[C@@H]1C/C2=N\OCCNC(=O)c1cc(Br)cs1`: 106%; `CC(C)c1cc2c(cc1Br)[C@@]1(C)CCC[C@@](C)(C(=O)O)[C@@H]1C/C2=N\OCCCCCNC(=O)c1cccs1`: 104%.
Consider `CCCCCC(=O)NCCO/N=C1\C[C@H]2[C@](C)(C(=O)O)CCC[C@]2(C)c2cc(Br)c(C(C)C)cc21`, for which the Activity was 146%.
